# Results from US20230372301A1, “TREATMENTS WITH NIROGACESTAT” (SpringWorks Therapeutics, Inc., priority 2022, published 2023).
# Structures can show the parent of a compound that is named as a salt. Where two headings read alike, the source gives them in different places.
# What was measured:
# [1] = Pharmacokinetics of single oral doses of nirogacestat dihydrobromide; assay type: in vivo, human; details: for AUC(0-inf) / AUC(0-t) / Cmax / half-life / Tmax / Vd/F: human, in vivo, po
# [2] = Pharmacokinetics of 150 mg nirogacestat dihydrobromide twice daily at steady state exposure; assay type: in vivo, human; details: 150 mg (free base equivalent dose) twice daily, oral
# Procedure: The pharmacokinetic parameters for oral doses of 150 mg (free base equivalent dose) nirogacestat dihydrobromide twice daily at steady state exposure is provided in Table 2E below.
# [3] = COHORT 1: 150 mg (1 × 150 mg), Period 2
# [4] = COHORT 1: 150 mg (3 × 50 mg), Period 1
# [5] = human, in vivo, steady state exposure
compound,measurement,setting,value
CCC[C@H](N[C@H]1CCc2cc(F)cc(F)c2C1)C(=O)Nc1cn(C(C)(C)CNCC(C)(C)C)cn1 [nirogacestat dihydrobromide],"CL/F, Geometric Mean",[1]; [3],49.7 L/h
same,"CL/F, Median",[1]; [3],48.4 L/h
same,"CL/F, Geometric Mean",[1]; [4],49.2 L/h
same,"CL/F, Median",[1]; [4],57.0 L/h
same,"CL/F, Geometric Mean","[1]; COHORT 2: 100 mg, Period 1",56.1 L/h
same,"CL/F, Median","[1]; COHORT 2: 100 mg, Period 1",58.4 L/h
same,"CL/F, Geometric Mean","[1]; COHORT 3: 50 mg, Period 1",87.6 L/h
same,"CL/F, Median","[1]; COHORT 3: 50 mg, Period 1",74.9 L/h
same,AUC(0-inf),"[1]; 50 mg, COHORT 3: 50 mg, Period 1, read-out: AUCinf, Geometric Mean",571 ng·h/mL
same,AUC(0-inf),"[1]; 50 mg, COHORT 3: 50 mg, Period 1, read-out: AUCinf, Median",674 ng·h/mL
same,AUC(0-t),"[1]; 50 mg, COHORT 3: 50 mg, Period 1, read-out: AUClast, Geometric Mean",545 ng·h/mL
same,AUC(0-t),"[1]; 50 mg, COHORT 3: 50 mg, Period 1, read-out: AUClast, Median",653 ng·h/mL
same,Cmax,"[1]; 50 mg, COHORT 3: 50 mg, Period 1, read-out: Cmax, Geometric Mean",183 ng/mL
same,Cmax,"[1]; 50 mg, COHORT 3: 50 mg, Period 1, read-out: Cmax, Median",209 ng/mL
same,half-life,"[1]; 50 mg, COHORT 3: 50 mg, Period 1, read-out: Half-life, Geometric Mean (converted)",19.3 h
same,half-life,"[1]; 50 mg, COHORT 3: 50 mg, Period 1, read-out: Half-life, Median (converted)",23.3 h
same,Tmax,"[1]; 50 mg, COHORT 3: 50 mg, Period 1, read-out: Tmax, Geometric Mean",0.829 h
same,Tmax,"[1]; 50 mg, COHORT 3: 50 mg, Period 1, read-out: Tmax, Median",1 h
same,Vd/F,"[1]; 50 mg, COHORT 3: 50 mg, Period 1, read-out: Vz/F, Geometric Mean",2440 L
same,Vd/F,"[1]; 50 mg, COHORT 3: 50 mg, Period 1, read-out: Vz/F, Median",2730 L
same,AUC(0-inf),"[1]; 100 mg, COHORT 2: 100 mg, Period 1, read-out: AUCinf, Geometric Mean",1780 ng·h/mL
same,AUC(0-inf),"[1]; 100 mg, COHORT 2: 100 mg, Period 1, read-out: AUCinf, Median",1710 ng·h/mL
same,AUC(0-t),"[1]; 100 mg, COHORT 2: 100 mg, Period 1, read-out: AUClast, Geometric Mean",1720 ng·h/mL
same,AUC(0-t),"[1]; 100 mg, COHORT 2: 100 mg, Period 1, read-out: AUClast, Median",1660 ng·h/mL
same,Cmax,"[1]; 100 mg, COHORT 2: 100 mg, Period 1, read-out: Cmax, Geometric Mean",435 ng/mL
same,Cmax,"[1]; 100 mg, COHORT 2: 100 mg, Period 1, read-out: Cmax, Median",433 ng/mL
same,half-life,"[1]; 100 mg, COHORT 2: 100 mg, Period 1, read-out: Half-life, Geometric Mean (converted)",25.2 h
same,half-life,"[1]; 100 mg, COHORT 2: 100 mg, Period 1, read-out: Half-life, Median (converted)",24.4 h
same,Tmax,"[1]; 100 mg, COHORT 2: 100 mg, Period 1, read-out: Tmax, Geometric Mean",1.19 h
same,Tmax,"[1]; 100 mg, COHORT 2: 100 mg, Period 1, read-out: Tmax, Median",1.28 h
same,Vd/F,"[1]; 100 mg, COHORT 2: 100 mg, Period 1, read-out: Vz/F, Geometric Mean",2040 L
same,Vd/F,"[1]; 100 mg, COHORT 2: 100 mg, Period 1, read-out: Vz/F, Median",2040 L
same,AUC(0-inf),"[1]; 150 mg, COHORT 1: 150 mg (1 × 150 mg), Period 2, read-out: AUCinf, Geometric Mean",3020 ng·h/mL
same,AUC(0-inf),"[1]; 150 mg, COHORT 1: 150 mg (1 × 150 mg), Period 2, read-out: AUCinf, Median",3100 ng·h/mL
same,AUC(0-t),"[1]; 150 mg, COHORT 1: 150 mg (1 × 150 mg), Period 2, read-out: AUClast, Geometric Mean",2930 ng·h/mL
same,AUC(0-t),"[1]; 150 mg, COHORT 1: 150 mg (1 × 150 mg), Period 2, read-out: AUClast, Median",3040 ng·h/mL
same,Cmax,"[1]; 150 mg, COHORT 1: 150 mg (1 × 150 mg), Period 2, read-out: Cmax, Geometric Mean",686 ng/mL
same,Cmax,"[1]; 150 mg, COHORT 1: 150 mg (1 × 150 mg), Period 2, read-out: Cmax, Median",662 ng/mL
same,half-life,"[1]; 150 mg, COHORT 1: 150 mg (1 × 150 mg), Period 2, read-out: Half-life, Geometric Mean (converted)",24.7 h
same,half-life,"[1]; 150 mg, COHORT 1: 150 mg (1 × 150 mg), Period 2, read-out: Half-life, Median (converted)",26.3 h
same,Tmax,"[1]; 150 mg, COHORT 1: 150 mg (1 × 150 mg), Period 2, read-out: Tmax, Geometric Mean",1.2 h
same,Tmax,"[1]; 150 mg, COHORT 1: 150 mg (1 × 150 mg), Period 2, read-out: Tmax, Median",1.5 h
same,Vd/F,"[1]; 150 mg, COHORT 1: 150 mg (1 × 150 mg), Period 2, read-out: Vz/F, Geometric Mean",1770 L
same,Vd/F,"[1]; 150 mg, COHORT 1: 150 mg (1 × 150 mg), Period 2, read-out: Vz/F, Median",1720 L
same,AUC(0-inf),"[1]; 150 mg, COHORT 1: 150 mg (3 × 50 mg), Period 1, read-out: AUCinf, Geometric Mean",3050 ng·h/mL
same,AUC(0-inf),"[1]; 150 mg, COHORT 1: 150 mg (3 × 50 mg), Period 1, read-out: AUCinf, Median",2640 ng·h/mL
same,AUC(0-t),"[1]; 150 mg, COHORT 1: 150 mg (3 × 50 mg), Period 1, read-out: AUClast, Geometric Mean",2960 ng·h/mL
same,AUC(0-t),"[1]; 150 mg, COHORT 1: 150 mg (3 × 50 mg), Period 1, read-out: AUClast, Median",2580 ng·h/mL
same,Cmax,"[1]; 150 mg, COHORT 1: 150 mg (3 × 50 mg), Period 1, read-out: Cmax, Geometric Mean",733 ng/mL
same,Cmax,"[1]; 150 mg, COHORT 1: 150 mg (3 × 50 mg), Period 1, read-out: Cmax, Median",697 ng/mL
same,half-life,"[1]; 150 mg, COHORT 1: 150 mg (3 × 50 mg), Period 1, read-out: Half-life, Geometric Mean (converted)",25 h
same,half-life,"[1]; 150 mg, COHORT 1: 150 mg (3 × 50 mg), Period 1, read-out: Half-life, Median (converted)",26.3 h
same,Tmax,"[1]; 150 mg, COHORT 1: 150 mg (3 × 50 mg), Period 1, read-out: Tmax, Geometric Mean",1.34 h
same,Tmax,"[1]; 150 mg, COHORT 1: 150 mg (3 × 50 mg), Period 1, read-out: Tmax, Median",1.49 h
same,Vd/F,"[1]; 150 mg, COHORT 1: 150 mg (3 × 50 mg), Period 1, read-out: Vz/F, Geometric Mean",1770 L
same,Vd/F,"[1]; 150 mg, COHORT 1: 150 mg (3 × 50 mg), Period 1, read-out: Vz/F, Median",1830 L
same,Time to steady-state,[2],Approximately 8 days
same,AUC,[2]; [5],6430 ng·h/mL
same,Cmax,[2]; [5],1250 ng/mL
